Results from patent US6646003B2, “Method of treating ocular inflammatory and angiogenesis-related disorders of the posterior segment of the eye using an amide derivative of flurbiprofen or ketorolac” (Alcon, Inc., priority 2001, dated 2003).

What was measured:
[1] = in vitro corneal drug permeation (perfusion chamber, HPLC); type: in vitro ADME, NZA rabbits; settings: continued drug perfusion of the corneal epithelium, excised rabbit cornea, GBR buffer
Description: Freshly excised corneas were obtained from 6-week old NZA rabbits (1.3-1.5 kg). Corneas were mounted in a modified Lucite perfusion chamber and perfused with glutathione-supplemented bicarbonated Ringer (GBR) buffer as previously described^1. Drug concentrations in GBR buffer were as indicated (FIG. 1), with the corneal epithelial cell layer facing the drug containing donor compartment. The final volume of the donor and receiver side of the perfusion chamber was 7.0 mL. Samples of 0.1 mL were withdrawn from both chambers at the beginning of the experiment and at 20 to 30 minute intervals thereafter through six hours. Samples were mixed with an equal volume of methanol and immediately subjected to HPLC analysis. HPLC analysis was carried out on a 25 cm×4.6 mm I.D. Spherosorb RP-18, 10μ column at a flow rate of 2.0 ml/min. The column effluent was monitored with a flow monitor at a wavelength of 230 nm. Elution of NSAID free acids and amides was accomplished with an eluant mixture composed of methanol:water:phosphoric acid (60/40/1 (v/v/v)) (pH 3.0). The eluant mixture was changed to methanol:water:phosphoric acid (60/40/1 (v/v/v)) (pH 3.0) when suprofen and suprofen amide were subjected to HPLC analysis.

[2] = in vitro metabolism: hydrolytic conversion of NSAID amides to free carboxylic acids; type: in vitro ADME, NZA rabbit; settings: rabbit iris/ciliary body, 36° C.; for rate of drug hydrolysis by the ICB: GBR buffer pH 7.6, four to six hours; for hydrolytic bioactivation by the ICB (result in words): GBR buffer pH 7.6
Description: Freshly dissected iris/ciliary body from the NZA rabbit was incubated at 36° C. for a period of four to six hours in 0.5 ml of GBR buffer (pH 7.6) supplemented with amide derivatives of the indicated NSAIDs. Samples of 0.1 ml were removed for HPLC analysis to monitor the hydrolytic conversion of NSAID amides to free carboxylic acids.

[3] = system: paracentesis-induced breakdown of the BAB; assay: inhibition of trauma-induced ocular inflammation (rabbit model of paracentesis); type: in vivo; settings: for inhibition of paracentesis-induced breakdown of the BAB: single 50 μL topical ocular drop of 0.1% solution/suspension 45 minutes prior to paracentesis, rabbit; for topical ocular in vivo antiinflammatory activity (result in words): 0.1% topical ocular dose, rabbit paracentesis model
Description: Effects of a single prophylactic topical ocular dose of the tested compounds were examined in a rabbit model of paracentesis (Graff, et al., Ocular Immunol. Inflamm., 6:227-238 (1998)). Briefly, a single 50 μL drop of a 0.1% drug solution/suspension was administered topically onto the eye 45 minutes prior to paracentesis and removal of ˜150 μL of aqueous humor. Thirty minutes after execution of paracentesis aqueous humor was removed (˜100 μL) for analysis. Both pre- and post-paracentesis samples were assayed for protein and PGE2 content.

SMILES | rate of drug hydrolysis by the ICB [2] [nM/min/mg tissue] | inhibition of paracentesis-induced breakdown of the BAB [3] [%] | hydrolytic bioactivation by the ICB (result in words) [2] | other results
NC(=O)Cc1cccc(C(=O)c2ccccc2)c1N [amide derivative of amfenac] | 0.69 | 64 |  | permeation coefficient [1]: 7.4 cm/min^−1×10^−5
NC(=O)Cc1cccc(C(=O)c2ccc(Br)cc2)c1N [amide derivative of bromfenac] | 0.17 |  |  | 
NC(=O)Cc1ccccc1Nc1c(Cl)cccc1Cl [amide derivative of diclofenac] |  |  | resistant to hydrolytic bioactivation | permeation coefficient [1]: 7.8 cm/min^−1×10^−5; topical ocular in vivo antiinflammatory activity (result in words) [3]: no antiinflammatory effects were detectable
CC(C(N)=O)c1ccc(-c2ccccc2)c(F)c1 (stereo not drawn) [amide derivative of flurbiprofen, 2-(3-fluoro-4-phenyl)-propionamide] | 0.29 | 29 |  | 
NC(=O)C1CCn2c(C(=O)c3ccccc3)ccc21 (stereo not drawn) [amide derivative of ketorolac, 5-benzoyl-2,3-dihydro-1H-pyrrolizine-1-carboxamide] | 2.42 |  |  | 
CC(C(N)=O)c1ccc(C(=O)c2cccs2)cc1 (stereo not drawn) [amide derivative of suprofen, α-methyl-4-(2-thienylcarbonyl)-benzeneacetamide] |  |  | resistant to hydrolytic bioactivation | 
CN(C)C(=O)Cc1cccc(C(=O)c2ccc(Br)cc2)c1N [dimethyl amide derivative of bromfenac, N,N-dimethyl 2-amino-3-(4-bromobenzoyl)benzeneacetamide] |  |  | resistant to hydrolytic bioactivation | topical ocular in vivo antiinflammatory activity (result in words) [3]: no antiinflammatory effects were detectable
CC(C(=O)O)c1ccc(-c2ccccc2)c(F)c1 (stereo not drawn) [flurbiprofen] |  | 50 |  | 
CNC(=O)Cc1cccc(C(=O)c2ccc(Br)cc2)c1N [monomethyl amide derivative of bromfenac, N-methyl 2-amino-3-(4-bromobenzoyl)benzeneacetamide] | 0.16 |  |  | 
